Reference: patent US20190389882A1, “INHIBITORS OF BETA SECRETASE” (Janssen Pharmaceutica NV, priority 2017, published 2019)

Experiments:
[1] = biological target: T1, recombinant BACE1 protein (Homo sapiens, UniProt P56817); assay: BACE1 biochemical FRET based assay; settings: 450 min at room temperature; for IC50: pH 5.0, read-out: Biochemical FRET based assay pIC50 (converted)
T1 construct: recombinant BACE1 protein in a final concentration of 0.04 μg/ml
Excerpt: (§1) This assay is a Fluorescence Resonance Energy Transfer Assay (FRET) based assay. The substrate for this assay is an APP derived 13 amino acids peptide that contains the ‘Swedish’ Lys-Met/Asn-Leu mutation of the amyloid precursor protein (APP) beta-secretase cleavage site. This substrate also contains two fluorophores: (7-methoxycoumarin-4-yl) acetic acid (Mca) is a fluorescent donor with excitation wavelength at 320 nm and emission at 405 nm and 2,4-Dinitrophenyl (Dnp) is a proprietary quencher acceptor. […] Upon cleavage by BACE1, the fluorophore Mca is separated from the quenching group Dnp, restoring the full fluorescence yield of the donor. The increase in fluorescence is linearly related to the rate of proteolysis.
Briefly in a 384-well format recombinant BACE1 protein in a final concentration of 0.04 μg/ml is incubated for 450 minutes at room temperature with 20 μM substrate in incubation buffer (50 mM Citrate buffer pH 5.0, 0.05% PEG) in the presence of compound or DMSO. Next the amount of proteolysis is directly measured by fluorescence measurement (excitation at 320 nm and emission at 405 nm) at different incubation times (0, 30, 60, 90, 120 and 450 min). For every experiment a time curve (every 30 min between 0 min and 120 min) is used to determine the time where we find the lowest basal signal of the high control. The signal at this time (Tx) is used to subtract from the signal at 450 min. Results are expressed in RFU, as difference between T450 and Tx.
(§2) A best-fit curve is fitted by a minimum sum of squares method to the plot of % Controlmin versus compound concentration. From this an IC50 value (inhibitory concentration causing 50% inhibition of activity) can be obtained.

[2] = system: Abeta 1-42 produced and secreted by human neuroblastoma SKNBE2 cells expressing hAPP695; assay: Cellular αLisa assay in SKNBE2 cells, Abeta 1-42; type: cell-based; settings: 18 hours incubation; for IC50: Homo sapiens, SKNBE2, 18 h, read-out: Cellular αLisa assay in SKNBE2 cells Abeta 42 pIC50 (converted)
Procedure: (§3) Cellular αLisa Assay in Sknbe2 Cells In two αLisa assays the levels of Abeta total and Abeta 1-42 produced and secreted into the medium of human neuroblastoma SKNBE2 cells are quantified. The assay is based on the human neuroblastoma SKNBE2 expressing the wild type Amyloid Precursor Protein (hAPP695). The compounds are diluted and added to these cells, incubated for 18 hours and then measurements of Abeta 1-42 and Abeta total are taken. Abeta total and Abeta 1-42 are measured by sandwich αLisa. αLisa is a sandwich assay using biotinylated antibody AbN/25 attached to streptavidin coated beads and antibody Ab4G8 or cAb42/26 conjugated acceptor beads for the detection of Abeta total and Abeta 1-42 respectively. In the presence of Abeta total or Abeta 1-42, the beads come into close proximity. The excitation of the donor beads provokes the release of singlet oxygen molecules that trigger a cascade of energy transfer in the acceptor beads, resulting in light emission. Light emission is measured after 1 hour incubation (excitation at […] and emission at 615 nm).
as §2

[3] = biological target: T2, recombinant BACE2 protein (Homo sapiens, UniProt Q9Y5Z0); assay: BACE2 biochemical FRET based assay; settings: 450 min at room temperature; for IC50: pH 5.0, read-out: Biochemical FRET based assay pIC50 (converted)
T2 construct: recombinant BACE2 protein in a final concentration of 0.4 μg/ml
T2 sequence (Q9Y5Z0 63-518): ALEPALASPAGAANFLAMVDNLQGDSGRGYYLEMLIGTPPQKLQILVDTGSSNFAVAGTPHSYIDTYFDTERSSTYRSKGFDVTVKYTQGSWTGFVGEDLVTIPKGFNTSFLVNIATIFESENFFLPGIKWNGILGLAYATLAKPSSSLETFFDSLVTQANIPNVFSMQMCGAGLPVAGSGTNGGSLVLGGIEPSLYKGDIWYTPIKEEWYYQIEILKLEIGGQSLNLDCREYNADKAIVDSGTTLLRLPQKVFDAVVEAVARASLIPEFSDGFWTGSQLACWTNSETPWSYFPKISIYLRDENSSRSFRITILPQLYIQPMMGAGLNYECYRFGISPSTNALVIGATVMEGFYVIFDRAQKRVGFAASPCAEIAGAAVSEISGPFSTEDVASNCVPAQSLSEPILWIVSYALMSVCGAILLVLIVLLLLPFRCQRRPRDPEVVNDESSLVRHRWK
Excerpt: as §1, with “assay” for “assay is an APP derived 13 amino acids peptide that”, “the beta-secretase,” for “BACE1,”
Briefly in a 384-well format recombinant BACE2 protein in a final concentration of 0.4 μg/ml is incubated for 450 minutes at room temperature with […] substrate in incubation buffer (50 mM Citrate buffer pH 5.0, 0.05% PEG, no DMSO) in the absence or presence of compound. Next the amount of proteolysis is directly measured by fluorescence measurement at T=0 and T=450 (excitation at 320 nm and emission at 405 nm). Results are expressed in RFU (Relative Fluorescence Units), as difference between T450 and TO.
as §2

[4] = system: Abeta total produced and secreted by human neuroblastoma SKNBE2 cells expressing hAPP695; assay: Cellular αLisa assay in SKNBE2 cells, Abeta total; type: cell-based; settings: 18 hours incubation, read-out: Cellular αLisa assay in SKNBE2 cells Abeta total pIC50 (converted)
Procedure: as §3, §2

[5] = biological target: T3, β-secretase II (BACE2) (Homo sapiens, UniProt Q9Y5Z0); assay: Automated (CyclOps) biochemical assay BACE2
T3 sequence (Q9Y5Z0 63-518): T2 sequence (Q9Y5Z0 63-518)

[6] = biological target: β-secretase I (BACE1) (Homo sapiens, UniProt P56817); assay: Automated (CyclOps) biochemical assay BACE1
Chain of β-secretase I (BACE1) (P56817 46-501): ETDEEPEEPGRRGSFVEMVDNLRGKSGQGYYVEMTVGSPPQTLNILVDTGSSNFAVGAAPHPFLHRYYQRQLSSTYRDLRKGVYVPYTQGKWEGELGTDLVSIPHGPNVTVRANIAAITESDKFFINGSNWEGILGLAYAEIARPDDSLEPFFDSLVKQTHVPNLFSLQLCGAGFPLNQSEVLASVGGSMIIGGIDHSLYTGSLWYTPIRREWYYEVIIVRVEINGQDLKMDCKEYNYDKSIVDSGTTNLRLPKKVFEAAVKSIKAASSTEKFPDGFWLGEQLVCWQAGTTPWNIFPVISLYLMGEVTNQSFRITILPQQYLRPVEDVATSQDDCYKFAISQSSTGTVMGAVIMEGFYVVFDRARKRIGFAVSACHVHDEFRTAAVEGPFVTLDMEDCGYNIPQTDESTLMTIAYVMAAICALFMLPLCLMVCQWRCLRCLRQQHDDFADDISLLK

T1 sequence (P56817 46-501): as above

| Structure (SMILES) | IC50 [1] | IC50 [2] | IC50 [3] | IC50 [5] | IC50 [6] | further results |
| --- | --- | --- | --- | --- | --- | --- |
| COc1ncc(CNC(=O)c2cc(C)no2)c2c1C[C@]1(c3ccc(F)cc3F)N=C(N)SC[C@@H]1C2 [Compound 32a] | 182 nM |  | 589 nM | 174 nM | 63.1 nM | IC50 [4]: 95.5 nM; Cellular αLisa assay in SKNBE2 cells Abeta 42 pIC50 [2]: 7.07 |
| COc1ncc(CNC(=O)c2ccncc2)c2c1C[C@]1(c3ccc(F)cc3F)N=C(N)SC[C@@H]1C2 [Compound 30a] | 66.1 nM |  | 692 nM | 468 nM | 41.7 nM | IC50 [4]: 81.3 nM; Cellular αLisa assay in SKNBE2 cells Abeta 42 pIC50 [2]: 7 |
| COc1ncc(CNC(=O)C2CC2)c2c1C[C@]1(c3ccc(F)cc3F)N=C(N)SC[C@@H]1C2 [Compound 31] | 81.3 nM | 33.1 nM | 105 nM |  |  |  |
| COc1ncc(CNC(=O)c2ccncc2)c2c1C[C@]1(c3ccc(F)cc3F)N=C(N)SC[C@@H]1C2 [Compound 30] | 29.5 nM |  | 355 nM |  |  | Cellular αLisa assay in SKNBE2 cells Abeta 42 pIC50 [2]: 7.31 |
| COc1ncc(CNC(=O)C2CC2)c2c1C[C@]1(c3ccc(F)cc3F)N=C(N)SC[C@@H]1C2 [Compound 31a] | 112 nM |  | 126 nM | 87.1 nM | 70.8 nM | IC50 [4]: 43.7 nM; Cellular αLisa assay in SKNBE2 cells Abeta 42 pIC50 [2]: 7.39 |
| COc1ncc(CNC(=O)c2cc(C)no2)c2c1C[C@]1(c3ccc(F)cc3F)N=C(N)SC[C@@H]1C2 [Compound 32] | 110 nM |  | 309 nM |  |  | Cellular αLisa assay in SKNBE2 cells Abeta 42 pIC50 [2]: 7.41 |
| COc1ncc(CNC(=O)c2nccnc2Cl)c2c1C[C@]1(c3ccc(F)cc3F)N=C(N)SC[C@@H]1C2 [Compound 48] | 21.9 nM | 16.6 nM | 200 nM | 72.4 nM | 12.2 nM |  |
| COc1ncc(CNC(=O)c2ncc(F)cc2F)c2c1C[C@]1(c3ccc(F)cc3F)N=C(N)SC[C@@H]1C2 [Compound 37] |  |  |  | 70.8 nM | 25.1 nM |  |
| COc1ncc(CNC(=O)c2ccc(C#N)cc2)c2c1C[C@]1(c3ccc(F)cc3F)N=C(N)SC[C@@H]1C2 [Compound 33] |  |  |  | 178 nM | 57.5 nM |  |
| COc1ncc(CNC(=O)CN2CCOCC2)c2c1C[C@]1(c3ccc(F)cc3F)N=C(N)SC[C@@H]1C2 [Compound 44] |  |  |  | 79.4 nM | 41.7 nM |  |
| COc1ncc(CNC(=O)c2cnoc2C(C)C)c2c1C[C@]1(c3ccc(F)cc3F)N=C(N)SC[C@@H]1C2 [Compound 42] |  |  |  | 138 nM | 74.1 nM |  |
| COc1ncc(CNC(=O)c2cnc(C(F)(F)F)nc2)c2c1C[C@]1(c3ccc(F)cc3F)N=C(N)SC[C@@H]1C2 [Compound 36] |  |  |  | 36.3 nM | 21.9 nM |  |

Now from value to compound, other results behind:

| IC50 [1] | IC50 [2] | IC50 [3] | IC50 [5] | IC50 [6] | Structure (SMILES) | further results |
| --- | --- | --- | --- | --- | --- | --- |
| 20.4 nM | 28.8 nM | 977 nM |  |  | COc1ncc(C(=O)N2CCC(c3ccncc3)C2)c2c1C[C@]1(c3ccc(F)cc3F)N=C(N)SC[C@@H]1C2 (stereo partly shown) [Compound 28] |  |
| 219 nM | 47.9 nM | 1510 nM |  |  | COc1ncc(C(=O)N2CCOCC2)c2c1C[C@]1(c3ccc(F)cc3F)N=C(N)SC[C@@H]1C2 [Compound 2] |  |
| 129 nM | 85.1 nM | 1100 nM | 355 nM | 34.7 nM | COc1ncc(C(=O)N2CCC(C#N)CC2)c2c1C[C@]1(c3ccc(F)cc3F)N=C(N)SC[C@@H]1C2 [Compound 22] |  |
|  | 9.55 nM |  |  |  | COc1ncc(C(=O)NC2CC2)c2c1C[C@]1(c3ccc(F)cc3F)N=C(N)SC[C@@H]1C2 [Compound 1] | Biochemical FRET based assay pIC50 ([1]; pH 5.0): 7.12; Biochemical FRET based assay pIC50 ([3]; pH 5.0): 6.77 |
| 75.9 nM | 56.2 nM | 282 nM |  |  | COc1ncc(C(=O)Nc2cccnc2)c2c1C[C@]1(c3ccc(F)cc3F)N=C(N)SC[C@@H]1C2 [Compound 3] |  |
| 240 nM | 46.8 nM | 1450 nM | 324 nM | 57.5 nM | COc1ncc(C(=O)N2CCOCC2)c2c1CC1(c3ccc(F)cc3F)N=C(N)SCC1C2 (stereo not shown) [Compound 2a] | IC50 [4]: 50.1 nM |
|  |  |  | 324 nM | 145 nM | COc1ncc(C(=O)N2CCN(c3cccnc3)CC2)c2c1C[C@]1(c3ccc(F)cc3F)N=C(N)SC[C@@H]1C2 [Compound 5] |  |
|  |  |  | 195 nM | 50.1 nM | COc1ncc(C(=O)N2CCCCC2)c2c1C[C@]1(c3ccc(F)cc3F)N=C(N)SC[C@@H]1C2 [Compound 20] |  |
|  |  |  | 4170 nM | 955 nM | COc1ncc(C(=O)N2CCN(C(C)=O)CC2)c2c1C[C@]1(c3ccc(F)cc3F)N=C(N)SC[C@@H]1C2 [Compound 27] |  |
|  |  |  | 38.9 nM | 11 nM | COc1ncc(C(=O)N2CCC(Oc3ccc(F)cc3)CC2)c2c1C[C@]1(c3ccc(F)cc3F)N=C(N)SC[C@@H]1C2 [Compound 14] |  |
|  |  |  | 63.1 nM | 61.7 nM | COc1cccc(N2CCN(C(=O)c3cnc(OC)c4c3C[C@H]3CSC(N)=N[C@@]3(c3ccc(F)cc3F)C4)CC2)c1 [Compound 24] |  |
| 66.1 nM | 19.1 nM | 166 nM | 72.4 nM | 39.8 nM | COc1ncc(C(=O)NC2CC2)c2c1C[C@]1(c3ccc(F)cc3F)N=C(N)SC[C@@H]1C2 [Compound 1a] | IC50 [4]: 22.9 nM |
|  |  |  | 324 nM | 112 nM | COc1ncc(C(=O)N(C)c2ccncc2)c2c1C[C@]1(c3ccc(F)cc3F)N=C(N)SC[C@@H]1C2 [Compound 21] |  |
|  |  |  | 537 nM | 219 nM | COc1ccccc1C(=O)NCc1cnc(OC)c2c1C[C@H]1CSC(N)=N[C@@]1(c1ccc(F)cc1F)C2 [Compound 34] |  |
|  |  |  | 117 nM | 18.6 nM | COc1ncc(C(=O)N2C[C@H]3CC[C@@H](C2)O3)c2c1C[C@]1(c3ccc(F)cc3F)N=C(N)SC[C@@H]1C2 [Compound 19] |  |
|  |  |  | 30.2 nM | 8.51 nM | COc1ncc(C(=O)N(C)Cc2ccncc2)c2c1C[C@]1(c3ccc(F)cc3F)N=C(N)SC[C@@H]1C2 [Compound 18] |  |
|  |  |  | 138 nM | 53.7 nM | COc1ncc(C(=O)Nc2ccncc2)c2c1C[C@]1(c3ccc(F)cc3F)N=C(N)SC[C@@H]1C2 [Compound 16] |  |
